Legend:
[1] = tested on: human hepatoma G2 cells; assay: Cytotoxicity assay (XTT colorimetric), Hep G2; format: cell-based; details: Homo sapiens, HepG2; 48 h of drug exposure
[2] = tested on: rat glioma C6 cells; assay: Cytotoxicity assay (XTT colorimetric), C6 cells; format: cell-based; details: Rattus norvegicus, C6; 48 h of drug exposure
[3] = tested on: hepatitis B virus transfected hepatoma cell lines, HepG 2.2.15 cells; assay: Cytotoxicity assay, 2.2.15 cells; format: cell-based, human; details: Homo sapiens, HepG2.2.15; 48 h of drug exposure
[4] = tested on: transcriptional activity of hTERT; assay: SEAP reporter assay of hTERT expression, PhTERT-SEAP (hTERT-BJ1); format: cell-based, human
Summary of the method: (§1)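 SEAP activity, read as rate of 405 nm absorbance rise with 12 mM p-nitrophenyl phosphate in diethanolamine/MgCl2/homoarginine buffer after 65 °C, 10 min heat inactivation, reports hTERT or CMV promoter activity. G418-selected stable H1299 or hTERT-BJ1 reporter lines were exposed to drug for 24 h.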

[5] = tested on: transcriptional activity of hTERT; assay: SEAP reporter assay of hTERT expression, PhTERT-SEAP (H1299); format: cell-based, human
Summary of the method: as §1

[6] = MTT relative viability, PhTERT-SEAP (H1299) cells; details: human
Experimental: The tetrazolium reagent (MTT; 3-(4,5-di-methylthiazol)-2,5-diphenyl tetrazolium bromide, USB) was designed to yield a colored formazan upon metabolic reduction by viable cells. Approximately […] cells were plated onto each well of a 96-well plate and incubated in 5% CO2 at 37° C. for 24 h. To assess the in vitro cytotoxicity, each compound was dissolved in DMSO and prepared immediately before the experiments and was diluted into the complete medium before addition to cell cultures. Test compounds were then added to the culture medium for designated various concentrations. After 48 h, an amount of 25 μL of MTT was added to each well, and the samples were incubated at 37° C. for 4 h. A 100 μL solution of lysis buffer containing 20% SDS and 50% N,N-dimethylformamide was added to each well and incubated at 37° C. for another 16 h. The absorbency at 550 nm was measured using an ELISA reader.
Non small lung cancer cells H1299 (telomerase positive) were grown in RPMI 1640 media supplemented with 10% fetal bovine serum, 100 units/mL penicillin and 100 mg/mL streptomycin in a humidified atmosphere with 5% CO2 at 37° C. The hTERT immortalized hTERT-BJ1 (BD Biosciences Clontech)^39 were grown in DMEM media supplemented with 10% fetal calf serum, 100 units/mL penicillin and 100 mg/mL streptomycin, 1 mM sodium pyruvate, and 4 mM I-arginine in a humidified atmosphere with 5% CO2 at 37° C. Culture media were changed every 3 days. […] The stable clones derived from H1299 or hTERT-BJ1 were cultured using conditions that are similar to their parental cells.

[7] = MTT relative viability, PhTERT-SEAP (hTERT-BJ1) cells; details: human
[8] = hTERT-BJ1 cells, stable PhTERT-SEAP reporter clone
[9] = Homo sapiens, hTERT-BJ1, read-out: Relative SEAP activity (%)
[10] = Homo sapiens, NCI-H1299, hTERT-H1299, read-out: Relative SEAP activity (%)

For `O=C1c2ccccc2C(=O)c2c(NC(=O)[C@@H]3C[C@H]3c3ccccc3)ccc(NC(=O)[C@@H]3C[C@H]3c3ccccc3)c21` (relative stereo) [VI27, 1,4-Bis(trans-2-phenyl-1-cyclopropaneamido)-9,10-anthracenedione], the IC50 [1] was over 20 µM, the IC50 [2] was over 20 µM and the IC50 [3] was 19.5 µM. The SEAP/vibility ([4]; 1.8 μM, PhTERT-SEAP (hTERT-BJ1)) was 0.89, the SEAP/vibility ([4]; 18 μM, PhTERT-SEAP (hTERT-BJ1)) was 0.99 and the SEAP/vibility ([4]; 189 μM, PhTERT-SEAP (hTERT-BJ1)) was 0.98. It also gave an activity at 1.8 µM ([4]; Homo sapiens, 1.8 μM, PhTERT-SEAP (hTERT-BJ1), read-out: Relative SEAP activity (%)) of 92 ± 16.9%, an activity at 18 µM ([4]; Homo sapiens, 18 μM, PhTERT-SEAP (hTERT-BJ1), read-out: Relative SEAP activity (%)) of 97 ± 18.2% and an activity at 189 µM ([4]; Homo sapiens, 189 μM, PhTERT-SEAP (hTERT-BJ1), read-out: Relative SEAP activity (%)) of 102 ± 16.6%. The SEAP/vibility ([5]; 1.8 μM, PhTERT-SEAP(hTERT-H1299)) was 0.94, the SEAP/vibility ([5]; 18 μM, PhTERT-SEAP(hTERT-H1299)) was 0.93 and the SEAP/vibility ([5]; 189 μM, PhTERT-SEAP(hTERT-H1299)) was 0.92. The activity at 1.8 µM ([5]; Homo sapiens, NCI-H1299, 1.8 μM, PhTERT-SEAP(hTERT-H1299), read-out: Relative SEAP activity (%)) was 95 ± 7.7%, the activity at 18 µM ([5]; Homo sapiens, NCI-H1299, 18 μM, PhTERT-SEAP(hTERT-H1299), read-out: Relative SEAP activity (%)) was 93 ± 3.2% and the activity at 189 µM ([5]; Homo sapiens, NCI-H1299, 189 μM, PhTERT-SEAP(hTERT-H1299), read-out: Relative SEAP activity (%)) was 87 ± 3.6%. The melting point was 272 to 274 °C, the viability at 48 h, 1.8 µM [6] was 101 ± 2.4% and the viability at 48 h, 18 µM [6] was 100 ± 4.7%. For the same molecule, the viability at 48 h, 189 µM [6] was 94 ± 3.5%, the viability at 48 h, 1.8 µM [7, 8] was 92 ± 16.9% and the viability at 48 h, 18 µM [7, 8] was 97 ± 18.2%. The viability at 48 h, 189 µM [7, 8] was 104 ± 10.7%.
`O=C1c2cccc(SCCC(O)O)c2C(=O)c2cccc(SCCC(O)O)c21` [IId, 1,5-Bis(dihydroxypropylthio)-anthraquinone] showed a melting point of 238 to 239 °C.
`CCNc1cccc2c1C(=O)c1cccc(NCC)c1C2=O` [IVa, 1,5-Bis(ethylamino)anthraquinone] showed an IC50 [1] of over 20 µM, an IC50 [2] of over 20 µM and an IC50 [3] of over 20 µM. The activity at 3.3 µM ([4]; Homo sapiens, 3.3 μM, hTERT-BJ1, read-out: Relative SEAP activity (%)) was 94 ± 17.4%, the activity at 33 µM ([4]; Homo sapiens, 33 μM, hTERT-BJ1, read-out: Relative SEAP activity (%)) was 96 ± 8.5% and the activity at 339 µM ([4]; Homo sapiens, 339 μM, hTERT-BJ1, read-out: Relative SEAP activity (%)) was 66 ± 11.8%. The activity at 3.3 µM ([5]; Homo sapiens, NCI-H1299, 3.3 μM, hTERT-H1299, read-out: Relative SEAP activity (%)) was 108 ± 6.3%, the activity at 33 µM ([5]; Homo sapiens, NCI-H1299, 33 μM, hTERT-H1299, read-out: Relative SEAP activity (%)) was 101 ± 6.8% and the activity at 339 µM ([5]; Homo sapiens, NCI-H1299, 339 μM, hTERT-H1299, read-out: Relative SEAP activity (%)) was 95 ± 11%. For the same molecule, the melting point was 193 to 195 °C, the viability at 48 h, 3.3 µM [6] was 106 ± 7.4% and the viability at 48 h, 33 µM [6] was 104 ± 3.7%. For the same molecule, the viability at 48 h, 339 µM [6] was 103 ± 6.4%, the viability at 48 h, 3.3 µM [7] was 100 ± 4.8% and the viability at 48 h, 33 µM [7] was 97 ± 1%. It also gave a viability at 48 h, 339 µM ([7]; hTERT-BJ1 cells) of 99 ± 3.2%.
For `CC(C)Nc1cccc2c1C(=O)c1cccc(NC(C)C)c1C2=O` [IVc, 1,5-Bis(isopropylamino)anthraquinone], the IC50 [1] was 7.64 ± 2.38 µM, the IC50 [2] was over 20 µM and the IC50 [3] was 19 µM. For the same molecule, the activity at 3.1 µM [4, 9] was 32 ± 18.3%, the activity at 31 µM [4, 9] was 23 ± 20.5% and the activity at 310 µM [4, 9] was -2%. It also gave an activity at 3.1 µM [5, 10] of 94 ± 4.1%, an activity at 31 µM [5, 10] of 93 ± 2% and an activity at 310 µM [5, 10] of 66 ± 4.7%. The melting point was 170 to 172 °C, the viability at 48 h, 3.1 µM [6] was 114 ± 7.6% and the viability at 48 h, 31 µM [6] was 111 ± 4.7%. For the same molecule, the viability at 48 h, 310 µM [6] was 50 ± 7.5%, the viability at 48 h, 3.1 µM ([7]; hTERT-BJ1 cells) was 101 ± 4.5% and the viability at 48 h, 31 µM ([7]; hTERT-BJ1 cells) was 93 ± 6.5%. For the same molecule, the viability at 48 h, 310 µM ([7]; hTERT-BJ1 cells) was 98 ± 12.9%.
For `CCCNc1cccc2c1C(=O)c1cccc(NCCC)c1C2=O` [IVf, 1,5-Bis(propylamino)anthraquinone], the IC50 [1] was 1.74 ± 0.14 µM, the IC50 [2] was 16 ± 0.68 µM and the IC50 [3] was 1.94 µM. The activity at 3.1 µM [4, 9] was 18 ± 16.7%, the activity at 31 µM [4, 9] was 19 ± 24.6% and the activity at 310 µM [4, 9] was -7%. It also gave an activity at 3.1 µM [5, 10] of 101 ± 15.3%, an activity at 31 µM [5, 10] of 100 ± 5.6% and an activity at 310 µM [5, 10] of 89 ± 8.3%. It also gave a melting point of 153 to 154 °C, a viability at 48 h, 3.1 µM [6] of 99 ± 7.6% and a viability at 48 h, 31 µM [6] of 98 ± 5.8%. The viability at 48 h, 310 µM [6] was 46 ± 9.5%, the viability at 48 h, 3.1 µM ([7]; hTERT-BJ1 cells) was 97 ± 5.6% and the viability at 48 h, 31 µM ([7]; hTERT-BJ1 cells) was 93 ± 8.9%. For the same molecule, the viability at 48 h, 310 µM ([7]; hTERT-BJ1 cells) was 42 ± 8.1%.
Work on `CCCCNc1cccc2c1C(=O)c1cccc(NCCCC)c1C2=O` [IVg, 1,5-Bis(butylamino)anthraquinone] yielded a melting point of 152 to 153 °C.
With `O=C1c2cccc(NC3CCCC3)c2C(=O)c2cccc(NC3CCCC3)c21` [IVi, 1,5-Bis(cyclopentylamino)anthraquinone] the melting point was 198 to 201 °C.
`NCCCCNc1cccc2c1C(=O)c1cccc(NCCCCN)c1C2=O` [IVl, 1,5-Bis(aminobutylamino)-anthraquinone] gave a melting point of 208 to 210 °C.

— patent US20050009924A1 (priority 2003, published 2005)
